For 1 compound, Ki results are on record in patent publication US20140323500A1, “NADPH OXIDASE 4 INHIBITORS AND USE THEREOF” (GENKYOTEX SA, priority 2011, published 2014).

The assay concerns the target T1, human Nox2 (Homo sapiens, UniProt P04839).
T1 construct: host or cells: T-REx-CHO (hNOX2 T-REx-CHO), tetracycline-induced; membrane fraction
T1 sequence (P04839 2-570 limits assumed): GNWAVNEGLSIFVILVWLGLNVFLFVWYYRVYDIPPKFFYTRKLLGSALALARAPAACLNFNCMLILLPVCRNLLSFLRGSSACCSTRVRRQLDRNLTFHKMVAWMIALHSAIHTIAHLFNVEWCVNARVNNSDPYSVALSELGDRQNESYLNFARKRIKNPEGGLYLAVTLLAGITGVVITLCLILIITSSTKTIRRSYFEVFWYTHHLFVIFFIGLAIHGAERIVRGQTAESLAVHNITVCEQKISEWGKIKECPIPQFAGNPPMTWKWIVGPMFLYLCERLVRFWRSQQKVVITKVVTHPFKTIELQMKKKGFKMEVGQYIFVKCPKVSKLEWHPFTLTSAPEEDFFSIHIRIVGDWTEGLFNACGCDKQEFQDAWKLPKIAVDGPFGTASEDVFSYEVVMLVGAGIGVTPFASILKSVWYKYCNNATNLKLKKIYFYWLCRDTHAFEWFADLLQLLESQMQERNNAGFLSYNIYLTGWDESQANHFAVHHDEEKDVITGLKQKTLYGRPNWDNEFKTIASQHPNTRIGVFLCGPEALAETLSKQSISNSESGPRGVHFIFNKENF
T1 sequence (P13498 2-195 partner limits assumed): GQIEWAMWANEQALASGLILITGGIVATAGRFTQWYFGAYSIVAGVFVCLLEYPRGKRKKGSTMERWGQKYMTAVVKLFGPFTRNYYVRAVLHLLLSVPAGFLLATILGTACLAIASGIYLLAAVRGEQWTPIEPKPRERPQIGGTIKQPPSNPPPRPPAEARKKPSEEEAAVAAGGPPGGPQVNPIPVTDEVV
In words: ROS production by membranes expressing human Nox2, cell-free Amplex Red assay. The assay is classed as biochemical. Conditions: cell-free membranes, Amplex Red; Cheng-Prusoff; average of at least three experiments in triplicate; read-out: Ki hNox2. The procedure, abridged: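 Membranes from tetracycline-induced (1 μg/ml, 24 h) T-REx-CHO cells stably expressing hNox2 with p22 and cofactors, incubated in PBS with Amplex Red, HRP and cofactors; NADPH starts ROS production. Compounds 1 nM–100 μM, 20 min at 37 °C, then fluorescence (544/590 nm) read for 10 min; Ki by Cheng-Prusoff.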

The Ki is the dissociation constant of the complex between target and ligand, obtained from inhibition or displacement.

Take `COc1ccc(-c2c3c(=O)n(-c4ccccc4OC)[nH]c3cc(=O)n2Cc2cccnc2)c(F)c1` [Compound (1), 4-(2-fluoro-4-methoxyphenyl)-2-(2-methoxyphenyl)-5-(pyridin-3-ylmethyl)-1H-pyrazolo[4,3-c]pyridine-3,6(2H,5H)-dione]: the Ki was determined as 813 nM.
